{
  "source": "patent US11780834B2",
  "about": "“Solid forms of 3-((1R,3R)-1-(2,6-difluoro-4-((1-(3-fluoropropyl)azetidin-3-yl)amino)phenyl)-3-methyl-1,3,4,9-tetrahydro-2H-pyrido[3,4-b]indol-2-yl)-2,2-difluoropropan-1-ol and processes for preparing fused tricyclic compounds comprising a substituted phenyl or pyridinyl moiety, including methods …” (Hoffmann-La Roche Inc., priority 2018, dated 2023)",
  "key": {"[1]": {"assay": "Solubility at 37° C. (summary of solid forms)", "type": "physicochemical", "conditions": "medium not stated"}, "[2]": {"assay": "Approximate solubility of freebase Compound A in 16 solvents at RT", "type": "physicochemical", "method": "Polymorph Screening. The solubility of freebase Compound A was estimated in 16 solvents at RT. (Table 8). Polymorph screening experiments were performed using different solution crystallization or solid phase transition methods."}, "[3]": {"assay": "Equilibrium solubility (24 hrs) of Form B and Form D in aw 0.2/0.4 EtOH:H2O systems", "type": "physicochemical", "conditions": "RT, concentration of freebase in filtrate; for solubility at 24 hrs: organic solvent or mixture, thermodynamic from solid", "method": "Solubility Measurement of Form B and D. To further confirm the thermodynamic stability relationship between Form B and Form D under aw of 0.2 and 0.4 conditions at RT, equilibrium solubility under the conditions set forth in Table 35 was collected.\nSolids of anhydrous Form B and hydrous Form D were suspended in 0.5 mL of target solvent system (aw=0.2/0.4), respectively, and magnetically stirred for 24 hrs (750 rpm). The suspension was filtered and the concentration of freebase in the filtrate was tested."}, "[4]": {"assay": "Water sorption analysis / DVS (hygroscopicity)", "type": "physicochemical", "conditions": "for Hygroscopicity (in words): water sorption / DVS at 25° C.", "method": "Water sorption analysis. About 5-6 mg of powder sample was placed in the sample pan of an automated water sorption analyzer (Q5000SA, TA instruments, New Castle, DE) at 25° C. and a nitrogen flow rate of 200 mL/min. […] This was followed by a progressive decrease in RH in decrements of 10% back to 0% RH, using the same protocol."}, "[5]": {"assay": "Equilibrium solubility (17 hrs) of Form B and Form F in EtOH", "type": "physicochemical", "conditions": "concentration of freebase in filtrate", "source_text": "Phase transformation. Crystallization of Compound B from solvents such as ethyl acetate, ethanol, acetone or and aqueous mixture of these may result in the formation of one more of the following forms: anhydrous Form B, anhydrous Form F, monohydrate Form D, and acetone solvate Form A. The XRPD patterns of these four solid forms are shown in FIG. 21. It was therefore important to know the physical stability of these forms to determine the complete phase transformation landscape and control crystallization to obtain the desired Form B. Owing to the close proximity of melting points of Forms F and B (160-164° C. onset for Form F vs 166-175° C. for Form B), form conversion was slow in competitive slurry bridging experiments at RT and a mixture of both forms was obtained.\nEquilibrium Solubility Measurement of Anhydrous Form B and F. To further determine the thermodynamic stability between Form B and F, equilibrium solubility measurement experiments were conducted in EtOH at 25° C., 35° C. and 50° C., respectively. Detailed procedures are summarized as follows: solids of Form B and F were suspended in 0.4 mL of EtOH at targeted temperatures and magnetically stirred for 17 hrs (750 rpm). After centrifugation, the concentration and HPLC purity of freebase in the filtrate was tested. The crystal form of remaining solids was checked by XRPD."}, "[6]": {"assay": "Stress stability of solid forms at elevated temperature and humidity (XRPD, impurities)", "type": "physicochemical", "method": "Preliminary stress stability analysis of Compound B Form B. The XRPD patterns of Compound A salts (fumarate and tartrate) exposed to 40° C./75% RH for one month under open conditions.\nXRPD of one-month stability sample."}, "[7]": {"assay": "Hydrate-anhydrate stability, slurry competition under various water activity at RT", "type": "physicochemical", "method": "Critical Water Activity Determination between Form B and D. To determine critical water activity between anhydrous Form B and hydrous Form D, slurry competition was performed in various water activity conditions at RT as listed in Table 34. A mixture of Form B and D with equal mass ratio was suspended in saturated EtOH-water (with various aw) solutions of Form B and then magnetically stirred at RT. After slurry for about 7˜36 days, remaining solids were isolated for XRPD characterization."}, "[8]": {"assay": "Compression analysis of Compound B Form B compacts", "type": "physicochemical", "conditions": "250 mg compacts of neat compound"}, "[9]": {"system": "xenograft models of ER-positive breast cancer", "conditions": "dosed according to a clinically relevant dosing scheme"}},
  "data": [
    {"compound": "C[C@@H]1Cc2c([nH]c3ccccc23)[C@@H](c2c(F)cc(NC3CN(CCCF)C3)cc2F)N1CC(F)(F)CO", "note": "[Compound A, 3-((1R,3R)-1-(2,6-difluoro-4-((1-(3-fluoropropyl)azetidin-3-yl)amino)phenyl)-3-methyl-1,3,4,9-tetrahydro-2H-pyrido[3,4-b]indol-2-yl)-2,2-difluoropropan-1-ol]", "values": [
      {"measurement": "solubility", "setting": "[1]", "result": "~6.6", "unit": "mg/mL"},
      {"measurement": "solubility", "setting": "[2]; ethanol, organic solvent or mixture, EtOH", "result": "> 60", "unit": "mg/mL"},
      {"measurement": "solubility", "setting": "[2]; organic solvent or mixture, 1,4-Dioxane", "result": "> 60", "unit": "mg/mL"},
      {"measurement": "solubility", "setting": "[2]; organic solvent or mixture, 2-propanol", "result": "> 60", "unit": "mg/mL"},
      {"measurement": "solubility", "setting": "[2]; organic solvent or mixture, ACN", "result": "> 60", "unit": "mg/mL"},
      {"measurement": "solubility", "setting": "[2]; organic solvent or mixture, Acetone", "result": "> 60", "unit": "mg/mL"},
      {"measurement": "solubility", "setting": "[2]; organic solvent or mixture, CPME", "result": "> 44", "unit": "mg/mL"},
      {"measurement": "solubility", "setting": "[2]; organic solvent or mixture, Cyclohexanes", "result": "< 1.9", "unit": "mg/mL"},
      {"measurement": "solubility", "setting": "[2]; organic solvent or mixture, EtOAc", "result": "> 60", "unit": "mg/mL"},
      {"measurement": "solubility", "setting": "[2]; organic solvent or mixture, IPAc", "result": "> 60", "unit": "mg/mL"},
      {"measurement": "solubility", "setting": "[2]; organic solvent or mixture, Iso-butanol", "result": "> 40", "unit": "mg/mL"},
      {"measurement": "solubility", "setting": "[2]; organic solvent or mixture, MIBK", "result": "> 60", "unit": "mg/mL"},
      {"measurement": "solubility", "setting": "[2]; organic solvent or mixture, MTBE", "result": "> 60", "unit": "mg/mL"},
      {"measurement": "solubility", "setting": "[2]; organic solvent or mixture, MeTHF", "result": "> 60", "unit": "mg/mL"},
      {"measurement": "solubility", "setting": "[2]; organic solvent or mixture, Toluene", "result": "> 60", "unit": "mg/mL"},
      {"measurement": "solubility", "setting": "[2]; organic solvent or mixture, n-Heptane", "result": "< 2.1", "unit": "mg/mL"},
      {"measurement": "solubility", "setting": "[2]; water, H2O", "result": "< 1.9", "unit": "mg/mL"}
    ]},
    {"compound": "C[C@@H]1Cc2c([nH]c3ccccc23)[C@@H](c2c(F)cc(NC3CN(CCCF)C3)cc2F)N1CC(F)(F)CO", "note": "[Compound B Form B]", "values": [
      {"measurement": "solubility at 24 hrs", "setting": "[3]; EtOH:H2O (92.7:7.3, v/v), aw 0.4, 25 °C, aw 0.4, EtOH:H2O (92.7:7.3, v/v)", "result": 27.5, "unit": "mg/mL"},
      {"measurement": "solubility at 24 hrs", "setting": "[3]; EtOH:H2O (97:3, v/v), aw 0.2, 25 °C, aw 0.2, EtOH:H2O (97:3, v/v)", "result": 24.4, "unit": "mg/mL"},
      {"measurement": "Hygroscopicity (in words)", "setting": "[4]", "result": "slightly hygroscopic"},
      {"measurement": "solubility at 17 hrs", "setting": "[5]; 35 °C, organic solvent or mixture, thermodynamic from solid", "result": 0.3, "unit": "mg/mL"},
      {"measurement": "solubility at 17 hrs", "setting": "[5]; 50 °C, organic solvent or mixture, thermodynamic from solid", "result": 0.49, "unit": "mg/mL"},
      {"measurement": "solubility at 17 h", "setting": "[5]; ethanol, 25 °C, organic solvent or mixture, thermodynamic from solid", "result": 0.23, "unit": "mg/mL"},
      {"measurement": "Solid form (XRPD) after accelerated stability", "setting": "[6]; 30° C./65% RH and 40° C./75% RH, up to 6 months, open", "result": "remains unchanged"},
      {"measurement": "Solid form (XRPD) after stress stability", "setting": "[6]; 40° C./75% RH, one month, open", "result": "remains unchanged"},
      {"measurement": "Water activity (aw) at which the form remained stable against hydrate Form D", "setting": "[7]", "result": "< 0.2"},
      {"measurement": "Water activity (aw) up to which the form was kinetically stable", "setting": "[7]; slurry bridging experiments up to 36 days", "result": "≤ 0.4"},
      {"measurement": "Solubility at 37° C.", "setting": "[1]", "result": "about 5.9 mg/mL"},
      {"measurement": "Solid form upon compression (SSNMR, XRPD)", "setting": "[8]", "result": "remains unchanged"}
    ]},
    {"compound": "C[C@@H]1Cc2c([nH]c3ccccc23)[C@@H](c2c(F)cc(NC3CN(CCCF)C3)cc2F)N1CC(F)(F)CO", "note": "[Compound B Form D]", "values": [
      {"measurement": "Solubility (equilibrium)", "setting": "[3]; aw 0.2, EtOH:H2O (97:3, v/v)", "result": 21.7, "unit": "mg/mL"},
      {"measurement": "Solubility (equilibrium)", "setting": "[3]; aw 0.4, EtOH:H2O (92.7:7.3, v/v)", "result": 18.6, "unit": "mg/mL"},
      {"measurement": "Water uptake (DVS, desorption)", "setting": "[4]; 20% RH, 25° C.", "result": 2.25, "unit": "%"},
      {"measurement": "Water uptake (DVS, desorption)", "setting": "[4]; 80% RH, 25° C.", "result": 2.72, "unit": "%"}
    ]},
    {"compound": "C[C@@H]1Cc2c([nH]c3ccccc23)[C@@H](c2c(F)cc(NC3CN(CCCF)C3)cc2F)N1CC(F)(F)CO", "note": "[Compound B Form F]", "values": [
      {"measurement": "Water uptake (DVS)", "setting": "[4]; up to 80% RH, 25° C.", "result": "~1.9", "unit": "%"},
      {"measurement": "Hygroscopicity (in words)", "setting": "[4]", "result": "slightly hygroscopic"},
      {"measurement": "Solubility (equilibrium)", "setting": "[5]; 25° C.", "result": 0.26, "unit": "mg/mL"},
      {"measurement": "Solubility (equilibrium)", "setting": "[5]; 35° C.", "result": 0.36, "unit": "mg/mL"},
      {"measurement": "Solubility (equilibrium)", "setting": "[5]; 50° C.", "result": 0.82, "unit": "mg/mL"}
    ]},
    {"compound": "C[C@@H]1Cc2c([nH]c3ccccc23)[C@@H](c2c(F)cc(NC3CN(CCCF)C3)cc2F)N1CC(F)(F)CO", "note": "[Compound C Form 1]", "values": [
      {"measurement": "Hygroscopicity at 95% RH", "setting": "[4]; 95% RH", "result": "< 1.5", "unit": "%"}
    ]},
    {"compound": "C[C@@H]1Cc2c([nH]c3ccccc23)[C@@H](c2c(F)cc(NC3CN(CCCF)C3)cc2F)N1CC(F)(F)CO", "note": "[Compound C]", "values": [
      {"measurement": "Impurities after stress stability", "setting": "[6]; 40° C./75% RH, one month", "result": 0.18, "unit": "%"},
      {"measurement": "Solid form (XRPD) after stress stability", "setting": "[6]; 40° C./75% RH, one month, open", "result": "did not change"}
    ]},
    {"compound": "C[C@]12CC[C@@H]3c4ccc(O)cc4C[C@@H](CCCCCCCCC[S+]([O-])CCCC(F)(F)C(F)(F)F)[C@H]3[C@@H]1CC[C@@H]2O", "note": "(stereo partly drawn) [Fulvestrant, reference compound]", "values": [
      {"measurement": "Efficacy relative to Compound B", "setting": "[9]", "result": "less efficacious than Compound B"}
    ]}
  ]
}
